Measurements from patent US11185527B2, “Methods and compositions relating to steroid hormone receptor-dependent cancers” (Wayne State University, priority 2017, dated 2021).

Experiments:
[1] = test system: H1650 (lung adenocarcinoma cells), AR-negative; assay: Cell monolayer growth assay (MTT); assay type: cell-based
Method: FIG. 12D is a graph showing the effect of KCI807 on in vitro growth of AR-negative cell line H1650 cells measured by the MTT assay. All values were plotted relative to the Day zero value. Cells were trypsinized and 3000-4000 cells/well were seeded in 96-well plates coated with poly-D-lysine. The cells were seeded in phenol red-free medium supplemented with 10% FBS, 100 units/ml penicillin, 100 μg/ml streptomycin, 2 mM L-glutamine mixture and sodium pyruvate (1 mM) for LNCaP cells and phenol red-free medium supplemented with 10% FBS, 100 units/ml penicillin, 100 μg/ml streptomycin and 2 mM L-glutamine mixture for VCaP, 22Rv1, DU145, HeLa, HEK293 and H1650 cells. The cells were grown at 37° C. in 5% CO2. Twenty four hours after seeding in the 96-well plates, the cells were treated with the indicated concentration of KCI807 or DMSO (vehicle). The cells were re-treated on Day 3 by removing half the volume of medium and replacing it with fresh treated medium. Cell viability was determined using the MTT assay from day zero until day five. MTT (10 μL, 5 mg/mL) was added to each well and incubated for 2h at 37° C. The formazan crystal sediments were dissolved in 100 μL of DMSO, and the absorbance at 570 nm was measured using the BioTek Synergy 2 Microplate Reader (BioTek, Winooski, Vt.). The assay was conducted in sextuplicate wells and values were normalized to day zero.

binding of AR to ELK1 = binding of AR to ELK1 (Homo sapiens, UniProt P10275); assay: SPR competition: inhibition of binding of AR (analyte) to immobilized ELK1; details: AR 200 nM as analyte
Chain of binding of AR to ELK1 (P10275 whole entry): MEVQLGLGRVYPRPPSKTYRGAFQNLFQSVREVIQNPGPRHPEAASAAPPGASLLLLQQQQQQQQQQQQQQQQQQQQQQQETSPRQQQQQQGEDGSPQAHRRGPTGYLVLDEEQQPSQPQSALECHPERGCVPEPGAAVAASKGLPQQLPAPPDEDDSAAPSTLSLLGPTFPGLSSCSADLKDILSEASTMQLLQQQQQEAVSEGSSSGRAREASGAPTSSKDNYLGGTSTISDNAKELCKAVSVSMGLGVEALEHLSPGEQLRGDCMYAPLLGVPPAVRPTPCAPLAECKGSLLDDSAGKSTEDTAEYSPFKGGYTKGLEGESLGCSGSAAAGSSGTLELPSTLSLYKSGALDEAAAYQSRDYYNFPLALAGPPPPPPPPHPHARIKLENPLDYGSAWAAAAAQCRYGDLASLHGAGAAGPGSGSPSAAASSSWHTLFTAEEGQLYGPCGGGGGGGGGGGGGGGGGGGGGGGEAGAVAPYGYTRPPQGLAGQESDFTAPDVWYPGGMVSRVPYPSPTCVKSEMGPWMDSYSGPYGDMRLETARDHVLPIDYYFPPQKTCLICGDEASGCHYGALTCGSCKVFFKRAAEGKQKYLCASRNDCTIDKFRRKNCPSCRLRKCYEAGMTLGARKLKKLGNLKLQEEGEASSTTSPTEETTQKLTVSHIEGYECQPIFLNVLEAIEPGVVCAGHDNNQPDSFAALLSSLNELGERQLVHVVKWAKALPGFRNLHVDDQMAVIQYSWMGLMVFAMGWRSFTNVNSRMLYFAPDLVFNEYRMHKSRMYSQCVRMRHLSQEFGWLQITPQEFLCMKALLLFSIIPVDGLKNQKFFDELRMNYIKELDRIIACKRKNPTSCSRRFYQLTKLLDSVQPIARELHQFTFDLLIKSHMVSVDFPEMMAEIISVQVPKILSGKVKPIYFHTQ
Method: The sensor surface was regenerated between experiments by dissociating any formed complex in HBS-N buffer for 30 min, followed by a further 30-min stabilization period. After regeneration, the SPR signal returned to the original level (baseline). In all cases, baseline was established in the presence of the vehicle used for the compounds (DMSO) appropriately diluted in HBS-N buffer. The binding curves were analyzed using the heterogeneous analyte competition model. The kinetic curves were analyzed for a one-to-one Langmuir fitting model provided by with the Biacore 3000 instrument software.

binding of ER to ELK1 = assay: SPR competition: inhibition of binding of ER (analyte) to immobilized ELK1; details: ER 200 nM, compound 0-32 uM
Method: A fixed concentration of ER (200 nM) was combined with 5,3′-Dihydroxyflavone diluted in a series (0, 1, 2,4, 8, 16, and 32 uM).
A fixed concentration of ER (200 nM) was combined with 5,3′-Dihydroxyflavone diluted in a series (0, 1, 2, 4, 8, 16, and 32 uM). […] This explains the ability of the compound to inhibit the estrogen-dependent growth of breast cancer cells, as ELK1 is required for estrogen-dependent growth of breast cancer cells.

[2] = test system: hormone-independent promoter activation by the splice variant AR-V7; assay: Gal4-ELK1 reporter activation by AR-V7 in transfected HeLa cells; assay type: cell-based; details: 10 uM or 20 uM
Method: FIG. 10 is a graph showing results of co-transfection of HeLa cells with the Gal4-TATA-Luc construct and the Gal4-ELK1 fusion protein expression plasmid. The cells were also co-transfected with either the AR-V7 expression plasmid (pLVX-AR-V7) or the corresponding vector plasmid (pLVX). At the time of transfection with AR-V7, the cells were also treated with KCI807 (10 uM or 20 uM) or with the vehicle control. Promoter activity was measured in terms of reporter luciferase activity. In all panels, the error bars represent standard deviation of experimental triplicates. *P<0.05
Hela Cells were plated in a 24-well plate at a concentration of 75,000 cells/well in antibiotic-free red DMEM. The following day the cells were transfected with a total of 300 ng of plasmid DNA/well using Lipofectamine 2000. The cells were incubated for 24h then lysed using luciferase assay lysis buffer 5X from Promega. The luciferase activity of the cell lysates were measured using firefly substrate from Promega and a luminometer (Lumat LB9501, Berthold, Wildbad, Germany).
The relatively higher concentrations of the compound required for this inhibition is likely because AR-V7 was overexpressed in the assay system.

[3] = Body weight and condition of mice in the PDX-PR011 xenograft study; details: for % body weight lost/gained: PDX-PR011 study
C4-2 cells = assay: Cell growth assay; assay type: cell-based
Excerpt: FIG. 16C is a graph showing the effect of 5′-Fluoro-5,3′-Dihydroxyflavone at various concentrations on growth of C4-2 cells.

| Compound | growth of H1650 cells [1] | inhibition of binding of AR to immobilized ELK1 (binding of AR to ELK1) | inhibition of binding of ER to immobilized ELK1 (binding of ER to ELK1) | inhibition of promoter activation by AR-V7 [2] | % body weight lost/gained ([3]; Day 1 after tumor implant) | % body weight lost/gained ([3]; Day 2 after tumor implant) | % body weight lost/gained ([3]; Day 3 after tumor implant) | % body weight lost/gained ([3]; Day 4 after tumor implant) | % body weight lost/gained ([3]; Day 5 after tumor implant) | % body weight lost/gained ([3]; Day 6 after tumor implant) | % body weight lost/gained ([3]; Day 7 after tumor implant) | % body weight lost/gained ([3]; Day 8 after tumor implant) | % body weight lost/gained ([3]; Day 9 after tumor implant) | % body weight lost/gained ([3]; Day 10 after tumor implant) | % body weight lost/gained ([3]; Day 11 after tumor implant) | % body weight lost/gained ([3]; Day 12 after tumor implant) | symptoms during the study, PDX-PR011 xenograft ([3]; mouse, in vivo) | weight loss (in words), PDX-PR011 xenograft ([3]; mouse, in vivo) | growth inhibition of C4-2 cells (C4-2 cells) |
| --- | --- | --- | --- | --- | --- | --- | --- | --- | --- | --- | --- | --- | --- | --- | --- | --- | --- | --- | --- |
| O=c1cc(-c2cccc(O)c2)oc2cccc(O)c12 [KCI807, 5,3′-dihydroxyflavone] | did not appreciably affect the growth | blocked binding | inhibits the binding of ER to ELK1 | inhibited | 0% | −3.8% | −4.6% | −2.3% | −2.3% | −1.5% | 0% | −1.5% | +0.8% | +0.8% | +1.5% | +3.1% | asymptomatic | did not show appreciable weight loss |  |
| O=c1cc(-c2cc(O)cc(F)c2)oc2cccc(O)c12 [5′-fluoro-5,3′-dihydroxyflavone] |  |  |  |  |  |  |  |  |  |  |  |  |  |  |  |  |  |  | inhibited growth |
